The values that follow come from US7544694B2, “Substituted diaza-spiro-[5.5]-undecane derivatives and their use as neurokinin antagonists” (Janssen Pharmaceutica N.V., priority 2004, dated 2009).

Where only a bound is given, the exact number is not on record here.

Type in all cases: cell-based
Assay [1] deals with NK1 (Homo sapiens, UniProt P25103). Kind of assay: Signal transduction (ST), intracellular Ca++ (FLIPR), functional NK1 antagonistic activity. The note with it: antagonist, read-out: NK1 pIC50 (converted). As for the experimental part:
(§1) This test evaluates in vitro functional NK1 antagonistic activity. For the measurements of intracellular Ca^++ concentrations the cells were grown on 96-well (black wall/transparent bottom) plates from Costar for 2 days until they reached confluence. The cells were loaded with 2 μM Fluo3 in DMEM containing 0.1% BSA and 2.5 mM probenecid for 1 h at 37° C. They were washed 3× with a Krebs buffer (140 mM NaCl, 1 mM MgCl2×6H2O, 5 mM KCl, 10 mM glucose, 5 mM HEPES; 1.25 mM CaCl2; pH 7.4) containing 2.5 mM probenecid and 0.1% BSA (Ca^++-buffer). The cells were preincubated with a concentration range of antagonists for 20 min at RT and Ca^++-signals after addition of the agonists were measured in a Fluorescence Image Plate Reader (FLIPR from Molecular Devices, Crawley, England). The peak of the Ca^++-transient was considered as the relevant signal and the mean values of corresponding wells were analysed as described below.
(§2) The sigmoidal dose response curves were analysed by computerised curve-fitting, using the GraphPad Program. The EC50-value of a compound is the effective dose showing 50% of maximal effect. For mean curves the response to the agonist with the highest potency was normalised to 100%. For antagonist responses the IC50-value was calculated using non-linear regression.
(§3) The last columns indicate—without being limited thereto—for which action the compounds might be most suitable. Of course, since for some neurokinin receptors no data was determined, it is obvious that these compounds might be attributed to another suitable use.

Assay [2] has as its target T1, NK3 (Homo sapiens, UniProt P29371).
T1 sequence (P29371 1-465): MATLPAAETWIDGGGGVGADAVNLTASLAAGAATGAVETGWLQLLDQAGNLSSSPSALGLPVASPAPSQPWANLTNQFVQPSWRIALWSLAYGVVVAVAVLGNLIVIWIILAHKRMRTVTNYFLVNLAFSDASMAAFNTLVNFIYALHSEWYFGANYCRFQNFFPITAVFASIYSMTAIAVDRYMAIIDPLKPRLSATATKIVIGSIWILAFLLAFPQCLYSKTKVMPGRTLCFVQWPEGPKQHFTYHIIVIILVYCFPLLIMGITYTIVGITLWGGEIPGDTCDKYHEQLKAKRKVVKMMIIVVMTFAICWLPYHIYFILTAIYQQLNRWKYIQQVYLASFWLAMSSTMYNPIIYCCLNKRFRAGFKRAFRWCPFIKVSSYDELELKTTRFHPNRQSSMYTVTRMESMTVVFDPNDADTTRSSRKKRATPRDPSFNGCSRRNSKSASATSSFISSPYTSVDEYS
Nature of the assay: Signal transduction (ST), intracellular Ca++ (FLIPR), NK3. To be noted: antagonist, read-out: NK3 pIC50 (converted). As for the experimental part: [The source words this procedure for another target and reports this target under the same test.] as §1, §2, §3

Assay [3] deals with T2, NK2 (Homo sapiens, UniProt P21452).
T2 sequence (P21452 1-398): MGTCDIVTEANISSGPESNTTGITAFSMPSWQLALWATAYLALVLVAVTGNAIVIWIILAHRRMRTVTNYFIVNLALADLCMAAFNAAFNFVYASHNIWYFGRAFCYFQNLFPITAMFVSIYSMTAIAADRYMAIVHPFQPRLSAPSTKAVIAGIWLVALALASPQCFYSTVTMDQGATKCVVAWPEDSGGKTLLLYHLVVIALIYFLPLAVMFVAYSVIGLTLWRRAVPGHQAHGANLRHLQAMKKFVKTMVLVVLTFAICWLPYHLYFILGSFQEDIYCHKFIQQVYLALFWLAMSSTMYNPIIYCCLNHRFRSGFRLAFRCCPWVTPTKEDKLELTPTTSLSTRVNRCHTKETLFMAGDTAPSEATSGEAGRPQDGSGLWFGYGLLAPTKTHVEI
Kind of assay: Signal transduction (ST), intracellular Ca++ (FLIPR), NK2. To be noted: antagonist, read-out: NK2 pIC50 (converted). On the procedure:
[The source words this procedure for another target and reports this target under the same test.] as §1, §2, §3

NK1, sequence (P25103 whole entry): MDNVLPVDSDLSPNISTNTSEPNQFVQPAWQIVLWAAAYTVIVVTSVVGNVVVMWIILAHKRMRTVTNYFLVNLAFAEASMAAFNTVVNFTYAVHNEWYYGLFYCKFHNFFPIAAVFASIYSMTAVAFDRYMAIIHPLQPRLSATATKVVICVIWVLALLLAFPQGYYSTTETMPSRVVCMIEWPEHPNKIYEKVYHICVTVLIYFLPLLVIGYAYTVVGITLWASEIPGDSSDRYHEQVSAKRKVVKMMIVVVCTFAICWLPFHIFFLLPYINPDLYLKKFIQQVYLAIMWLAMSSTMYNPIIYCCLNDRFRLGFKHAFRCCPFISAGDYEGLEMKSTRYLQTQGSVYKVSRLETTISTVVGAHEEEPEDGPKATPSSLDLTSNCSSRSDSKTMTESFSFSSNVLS

Regarding `CC(=O)Nc1ccc(S(=O)(=O)N2CCC3(CCN([C@H]4CCN(C(=O)c5cc(C(F)(F)F)cc(C(F)(F)F)c5)[C@H](Cc5ccccc5)C4)CC3)CC2)cc1` [Compound 124], the IC50 in assay [1] is 0.0234 µM; in assay [2], 1.78 µM; in assay [3] it was roughly 2.57 µM.
In the case of `O=C(c1cc(C(F)(F)F)cc(C(F)(F)F)c1)N1CC[C@H](N2CCC3(CC2)CCN(S(=O)(=O)c2cc(Cl)ccc2Cl)CC3)C[C@H]1Cc1ccccc1` [Compound 110], the IC50 was 0.174 µM in assay [1] and 5.13 µM in assay [2].
As to `O=C(c1cc2ccccc2o1)N1CCC2(CC1)CCN([C@H]1CCN(C(=O)c3cc(C(F)(F)F)cc(C(F)(F)F)c3)[C@H](Cc3ccccc3)C1)CC2` [Compound 64], the IC50 is 0.891 µM in assay [1], greater than 10 µM in assay [2] and greater than 10 µM in assay [3].
Turning to `CC(C)S(=O)(=O)N1CCC2(CCN([C@H]3CCN(C(=O)c4cc(C(F)(F)F)cc(C(F)(F)F)c4)[C@H](Cc4ccccc4)C3)CC2)CC1` [Compound 167], the figures for the IC50 in assay [1], in assay [2] and in assay [3] were 0.0562 µM, 1.95 µM and 2.04 µM, respectively.
For `Cc1cn(CC(=O)N2CCC3(CC2)CCN([C@H]2CCN(C(=O)c4cc(C(F)(F)F)cc(C(F)(F)F)c4)[C@H](Cc4ccccc4)C2)CC3)c(=O)[nH]c1=O` [Compound 80], in that order: 0.0295 µM, greater than 10 µM and greater than 10 µM.
For `O=C(c1cc(C(F)(F)F)cc(C(F)(F)F)c1)N1CC[C@H](N2CCC3(CCN(C(=O)C4(c5ccccc5)CC4)CC3)CC2)C[C@H]1Cc1ccccc1` [Compound 89] the same measures were 0.148 µM, greater than 10 µM and 2.51 µM.
For `O=C(c1cc(C(F)(F)F)cc(C(F)(F)F)c1)N1CC[C@H](N2CCC3(CC2)CCN(S(=O)(=O)c2ccc(Cl)s2)CC3)C[C@H]1Cc1ccccc1` [Compound 94], in that order: 0.132 µM, 0.575 µM and greater than 10 µM.
Turning to `O=C(c1ccsc1)N1CCC2(CC1)CCN([C@H]1CCN(C(=O)c3cc(C(F)(F)F)cc(C(F)(F)F)c3)[C@H](Cc3ccc(F)c(F)c3)C1)CC2` [Compound 141], the IC50 in assay [1] was 0.0417 µM; in assay [2], 7.08 µM; in assay [3], 5.89 µM.
In the case of `O=C1CC2(CCN1CC1CCC1)CCN([C@@H]1CCN(C(=O)c3cc(C(F)(F)F)cc(C(F)(F)F)c3)[C@H](Cc3ccccc3)C1)CC2` [Compound 197], the figures for the IC50 in assay [1], in assay [2] and in assay [3] were 0.191 µM, 6.46 µM and 2.88 µM, respectively.
On to `O=C(c1cc(C(F)(F)F)cc(C(F)(F)F)c1)N1CC[C@H](N2CCC3(CC2)CCN(S(=O)(=O)c2ccc(Br)s2)CC3)C[C@H]1Cc1ccccc1` [Compound 95], for which the IC50 was 0.269 µM in assay [1], 2.34 µM in assay [2] and 1.91 µM in assay [3].
For `O=C(C1=CCCCC1)N1CCC2(CC1)CCN([C@H]1CCN(C(=O)c3cc(C(F)(F)F)cc(C(F)(F)F)c3)[C@H](Cc3ccccc3)C1)CC2` [Compound 41], in that order: 0.148 µM, greater than 10 µM and 8.51 µM.
For `Cc1noc(C)c1CN1CCC2(CCN([C@H]3CCN(C(=O)c4cc(C(F)(F)F)cc(C(F)(F)F)c4)[C@H](Cc4ccccc4)C3)CC2)CC1=O` [Compound 200] the same measures were 0.0234 µM, 6.92 µM and 1.45 µM.
For `Cc1ccc(C(=O)N2CCC3(CC2)CCN([C@H]2CCN(C(=O)c4cc(C(F)(F)F)cc(C(F)(F)F)c4)[C@H](Cc4ccccc4)C2)CC3)s1` [Compound 30], in that order: 0.692 µM, greater than 10 µM and 7.94 µM.
Take `O=C(C1CCCC1)N1CCC2(CC1)CCN([C@@H]1CCN(C(=O)c3cc(C(F)(F)F)cc(C(F)(F)F)c3)[C@H](Cc3ccccc3)C1)CC2` [Compound 18]: the IC50 in assay [1] is 0.0204 µM; in assay [2], 4.68 µM; in assay [3] it was 1.2 µM.
For `O=C(c1cc(C(F)(F)F)cc(C(F)(F)F)c1)N1CC[C@H](N2CCC3(CC2)CCN(S(=O)(=O)c2ccc(Cl)cc2)CC3)C[C@H]1Cc1ccccc1` [Compound 108] the same measures were 0.324 µM, 3.98 µM and 2.63 µM.
For `CC(C)(C)OC(=O)N1CCCC1C(=O)N1CCC2(CCN(C[C@H]3CCN(C(=O)c4cc(C(F)(F)F)cc(C(F)(F)F)c4)[C@H](Cc4ccccc4)C3)CC2)CC1` (stereo partly shown) [Compound 181] the same measures were 0.0339 µM, greater than 10 µM and 7.08 µM.
For `O=C(c1ccc2nonc2c1)N1CCC2(CC1)CCN([C@H]1CCN(C(=O)c3cc(C(F)(F)F)cc(C(F)(F)F)c3)[C@H](Cc3ccccc3)C1)CC2` [Compound 68] the same measures were 0.295 µM, greater than 10 µM and 5.62 µM.
Consider `O=C(CC12CC3CC(CC(C3)C1)C2)N1CCC2(CC1)CCN([C@H]1CCN(C(=O)c3cc(C(F)(F)F)cc(C(F)(F)F)c3)[C@H](Cc3ccccc3)C1)CC2` [Compound 72], for which the IC50 in assay [1] is 0.324 µM; in assay [2], greater than 10 µM; in assay [3], greater than 10 µM.
For `COc1cccc(CCC(=O)N2CCC3(CC2)CCN([C@H]2CCN(C(=O)c4cc(C(F)(F)F)cc(C(F)(F)F)c4)[C@H](Cc4ccccc4)C2)CC3)c1` [Compound 83], the IC50 in assay [1] was 0.0363 µM; in assay [2], 8.91 µM; in assay [3], 2.57 µM.
As for `O=C(C1CCN(C(=O)c2cc(C(F)(F)F)cc(C(F)(F)F)c2)C(Cc2ccccc2)C1)N1CCC2(CCN(Cc3ccccc3)CC2)CC1` (stereo not shown) [Compound 185], the IC50 in assay [1] is 0.0813 µM; in assay [2], greater than 10 µM; in assay [3], 5.5 µM.
For `Cc1occc1C(=O)N1CCC2(CC1)CCN([C@H]1CCN(C(=O)c3cc(C(F)(F)F)cc(C(F)(F)F)c3)[C@H](Cc3ccccc3)C1)CC2` [Compound 27] the same measures were 0.0204 µM, 3.31 µM and 4.47 µM.
Turning to `CC1(C(=O)N2CCC3(CC2)CCN([C@H]2CCN(C(=O)c4cc(C(F)(F)F)cc(C(F)(F)F)c4)[C@H](Cc4ccccc4)C2)CC3)CC1` [Compound 11], the IC50 in assay [1] was 0.105 µM; in assay [3], 5.37 µM.
For `Cc1cc(C)cc(C(=O)N2CCC(N3CCC4(CCN(C(=O)C5CC5)CC4)CC3)CC2Cc2ccccc2)c1` (stereo not shown) [Compound 153], in that order: 0.145 µM and greater than 10 µM.
In the case of `O=C(C1CC1)N1CCC2(CC1)CCN(C1CCN(C(=O)c3cc(Cl)cc(Cl)c3)C(Cc3ccccc3)C1)CC2` (stereo not shown) [Compound 155], the IC50 was 0.158 µM in assay [1] and 6.46 µM in assay [3].
For `NC(=O)C1(C(=O)N2CCC3(CC2)CCN([C@H]2CCN(C(=O)c4cc(C(F)(F)F)cc(C(F)(F)F)c4)[C@H](Cc4ccccc4)C2)CC3)CC1` [Compound 14], the IC50 is 0.0316 µM in assay [1] and greater than 10 µM in assay [3].
Consider `O=C(c1cc(C(F)(F)F)cc(C(F)(F)F)c1)N1CC[C@H](N2CCC3(CC2)CCN(S(=O)(=O)c2cc(Cl)sc2Cl)CC3)C[C@H]1Cc1ccccc1` [Compound 97], for which the IC50 was 0.0871 µM in assay [1] and roughly 10 µM in assay [2].
On to `O=C(c1cc(C(F)(F)F)cc(C(F)(F)F)c1)N1CC[C@H](N2CCC3(CC2)CCN(S(=O)(=O)c2ccccc2Cl)CC3)C[C@H]1Cc1ccccc1` [Compound 106], for which the IC50 in assay [1] was 0.0603 µM; in assay [2], 0.525 µM.
For `N#Cc1ccccc1S(=O)(=O)N1CCC2(CCN([C@H]3CCN(C(=O)c4cc(C(F)(F)F)cc(C(F)(F)F)c4)[C@H](Cc4ccccc4)C3)CC2)CC1` [Compound 118] the same measures were 0.0309 µM and 1.51 µM.
